Consider four compounds from ChEMBL document CHEMBL4316655, “Sesquiterpenoids from the Endophytic Fungus Rhinocladiella similis” (J Nat Prod, 2019).

As usually defined, the IC50 is the concentration needed to halve the response being measured. By MIC is commonly meant the lowest concentration found to suppress growth. Lower therefore signals greater potency.

For test [1], the system named is L5178Y. Kind of test: Cytotoxicity against mouse L5178Y cells by MTT assay. In kind it is functional, cell-based.
The test system of test [2] is Staphylococcus aureus. Briefly: Antibacterial activity against Staphylococcus aureus ATCC 29213 by broth microdilution method. In kind it is functional. (In general: In broth dilution the organism is exposed to a series of concentrations in liquid medium.)
In test [3] the test system is Enterococcus faecium. Kind of test: Antibacterial activity against Enterococcus faecium ATCC 35667 by broth microdilution method. In kind it is functional.
Test [4] concerns Klebsiella pneumoniae. Briefly: Antibacterial activity against Klebsiella pneumoniae ATCC 13883 by broth microdilution method. The class given is functional.

Converted amounts (≈) assume the structure as drawn.

`CC(C)[C@H]1CC[C@@](O)(COC(=O)C2=C[C@@H]3[C@@H](C(C)C)CC[C@@](O)(CCl)[C@H]3C(=O)OC2)[C@H]2C(=O)OCC(C(=O)O)=C[C@H]12` gave an IC50 in test [1] of 5 µM.
Same read-out and setting: to `CC(C)[C@H]1CCC(CO)=C[C@@H]1/C=C(\CO)C(=O)O` [GLIOCLADIC ACID] belongs 24.4 µM; to `CC(C)[C@H]1CC[C@H](CO)[C@@H]2[C@@H]1C=C(C(=O)O)C[C@H]2O`, 8.7 µM.
As for `CC(C)[C@H]1CC[C@@](O)(CCl)[C@H]2C(=O)OCC(C(=O)O)=C[C@H]12` [HEPTELIDIC ACID CHLOROHYDRIN], the figures for the MIC in test [2], in test [3] and in test [4] were 50 µM (≈ 15.8 µg/mL), 50 µM (≈ 15.8 µg/mL) and 100 µM (≈ 31.7 µg/mL), respectively.
